Test system: co-culture of patient-derived pancreatic tumor organoids (TCO) and cancer associated fibroblast (SCT)
Test: co-culture of patient-derived pancreatic tumor organoids and cancer associated fibroblasts, stroma parameters from fluorescent images
Type: cell-based
Conditions: for stroma growth rate (normalized stromal growth rate): FIG. 5, FGF2 10 ng/ml; for stroma growth rate (normalized stromal growth rate) / stromal density of the micro-tumor / contractility: Nintedanib 0.5 μM; for stroma growth rate (normalized stromal growth rate) / stromal density of the micro-tumor: TGF-B 5 ng/ml; for stroma size (area): FIG. 6; for stroma size (area) / stromal size ratio: dynamic (over time) kinetic quantification; for stromal size ratio: FIG. 9; for stromal density of the micro-tumor: FIG. 10, static endpoint, compared to the control; for stromal density of the micro-tumor / contractility: FGF2 10 ng/mL; for contractility: FIGS. 7 and 8
Description: A co-culture was prepared of patient-derived pancreatic tumor organoids (TCO) and cancer associated fibroblast (SCT), wherein the TCO and the SCT were fluorescently labelled with the first and second fluorescent label respectively. First and second fluorescent images were recorded and the status of the sample was determined with and without contacting the sample with Nintedanib, TGFB or FGF2. Nintedanib is a known anti-fibrotic drug that inhibits fibroblast proliferation and motility. TGFB and FGF2 are growth factors that can stimulate fibroblast proliferation.

Molecule | micro-tumor formation driven by activated fibroblasts | stroma growth rate (normalized stromal growth rate) | stroma size (area) | stromal size ratio | stromal size ratio (listed as Nintedanib) | stromal density of the micro-tumor | contractility | motility (shown by contractility, stromal size ratio and stromal density (FIGS. 7 to 10))
COC(=O)c1ccc2c(c1)NC(=O)/C2=C(\Nc1ccc(N(C)C(=O)CN2CCN(C)CC2)cc1)c1ccccc1 [nintedanib, Nintedanib] | inhibited | inhibited | inhibited | reduced | inhibitory effect | reduced | lack of contractility | inhibited
FGF2: growth factor that can stimulate fibroblast proliferation | – | stimulated the strongest | stimulated the strongest | – | – | only had marginal effects | have been contracted together | –
TGFB | – | – | – | – | – | only had marginal effects | – | –

Reference: patent US20250369863A1, “METHOD FOR DETERMINING A STATUS OF A CO-CULTURE” (Universiteit Antwerpen, priority 2022, published 2025)
